Values quoted from earlier work in US7238683B2, “Fused phenylalanine derivatives as dipeptidyl peptidase-iv inhibitors for the treatment or prevention of diabetes” (Merck & Co., Inc., priority 2003, dated 2007).

Assays:
[1] = biological target: T1, DP-IV (Homo sapiens, UniProt P27487)
T1 construct: GRP is rapidly degraded in plasma to GRF[3-44]; from tissue

[2] = system: hematopoiesis; settings: mouse, cyclophosphamide-induced neutropenia

T1 sequence (P27487 whole entry): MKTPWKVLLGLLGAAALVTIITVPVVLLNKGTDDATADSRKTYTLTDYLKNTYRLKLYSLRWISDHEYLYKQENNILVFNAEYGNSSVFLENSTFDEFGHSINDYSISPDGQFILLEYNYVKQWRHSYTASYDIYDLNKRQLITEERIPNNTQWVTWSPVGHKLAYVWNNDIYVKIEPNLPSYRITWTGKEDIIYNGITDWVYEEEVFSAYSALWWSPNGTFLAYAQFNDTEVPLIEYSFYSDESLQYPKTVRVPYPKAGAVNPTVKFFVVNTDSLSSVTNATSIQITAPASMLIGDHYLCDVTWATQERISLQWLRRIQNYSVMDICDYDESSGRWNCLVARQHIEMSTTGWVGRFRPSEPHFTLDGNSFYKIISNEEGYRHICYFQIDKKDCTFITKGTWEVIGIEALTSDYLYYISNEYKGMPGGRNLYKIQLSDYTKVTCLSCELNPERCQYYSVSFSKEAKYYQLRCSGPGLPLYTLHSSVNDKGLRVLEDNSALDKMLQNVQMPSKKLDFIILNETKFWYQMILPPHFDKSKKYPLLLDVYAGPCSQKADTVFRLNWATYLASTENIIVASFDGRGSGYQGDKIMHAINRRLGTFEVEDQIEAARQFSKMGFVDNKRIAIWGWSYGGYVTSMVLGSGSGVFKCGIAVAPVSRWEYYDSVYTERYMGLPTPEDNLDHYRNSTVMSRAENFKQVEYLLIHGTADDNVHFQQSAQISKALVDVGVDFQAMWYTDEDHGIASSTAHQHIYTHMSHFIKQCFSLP

CC[C@H](C)[C@H](N)C(=O)N1CCC[C@H]1C(=O)N[C@H](C(=O)O)[C@@H](C)CC [diprotin A]
degradation of GRF in plasma to GRF[3-44] [1]: prevented

CC(C)[C@H](N)C(=O)N1CCC[C@H]1B(O)O [Val-Boro-Pro]
effect on hematopoiesis [2]: stimulated hematopoiesis
